Data on eight compounds can be found in US20240166641A1, “HETEROCYCLES AND USES THEREOF” (Kumquat Biosciences Inc., priority 2021, published 2024).

A word on the IC50: it is the concentration that gives 50% inhibition.

Data set [1] deals with T1, PTPN2 (Homo sapiens, UniProt P17706).
T1 sequence (P17706 1-415): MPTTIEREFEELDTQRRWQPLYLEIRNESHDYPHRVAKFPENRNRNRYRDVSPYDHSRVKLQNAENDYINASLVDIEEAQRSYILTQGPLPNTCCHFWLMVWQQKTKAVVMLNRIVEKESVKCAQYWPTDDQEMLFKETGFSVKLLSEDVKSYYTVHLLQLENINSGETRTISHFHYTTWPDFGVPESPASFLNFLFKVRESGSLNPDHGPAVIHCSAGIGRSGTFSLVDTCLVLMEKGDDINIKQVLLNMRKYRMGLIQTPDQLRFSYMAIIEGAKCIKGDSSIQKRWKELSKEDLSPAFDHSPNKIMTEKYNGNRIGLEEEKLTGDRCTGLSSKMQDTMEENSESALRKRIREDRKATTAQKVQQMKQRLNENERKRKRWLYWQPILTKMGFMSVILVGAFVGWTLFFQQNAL
The data set can be described thus: Phosphatase activity assay (Bio-Biochem-DiFMUP), PTPN2. It counts as biochemical. Conditions: DiFMUP substrate, room temperature. In a few lines: (§1)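 Buffer was 50 mM Bis-Tris pH 6.3, 2 mM EDTA, 5 mM DMH, with 10 μM FDP or DiFMUP substrate, enzyme added last, at room temperature. Fluorescent product was read continuously for 15–30 min (DiFMU ex 360/em 450 nm; FMP ex 440/em 530 nm). Initial rates against 10-point inhibitor series were fitted with a 4-parameter equation to give IC50.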

Data set [2] concerns the target T2, PTP1B (Homo sapiens, UniProt P18031).
T2 sequence (P18031 1-435): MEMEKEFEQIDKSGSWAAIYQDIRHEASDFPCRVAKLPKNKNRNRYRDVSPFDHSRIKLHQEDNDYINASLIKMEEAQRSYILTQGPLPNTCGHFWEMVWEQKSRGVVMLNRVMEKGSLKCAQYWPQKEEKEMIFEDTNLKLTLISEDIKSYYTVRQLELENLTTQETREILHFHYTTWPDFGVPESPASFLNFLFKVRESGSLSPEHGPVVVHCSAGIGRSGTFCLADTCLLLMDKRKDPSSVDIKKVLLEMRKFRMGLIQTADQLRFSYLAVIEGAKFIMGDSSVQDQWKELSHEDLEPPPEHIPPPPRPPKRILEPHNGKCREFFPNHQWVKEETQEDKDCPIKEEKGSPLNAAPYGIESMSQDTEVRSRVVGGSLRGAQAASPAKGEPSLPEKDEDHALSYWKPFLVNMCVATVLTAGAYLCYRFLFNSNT
The data set can be described thus: Phosphatase activity assay (Bio-Biochem-DiFMUP), PTP1B. It is filed as biochemical. Conditions: DiFMUP substrate, room temperature. In short, it runs like this: as §1

Data set [3] relates to mouse C57BL/6 T cells. The experiment in a line: pSTAT1 signaling in IFNα-stimulated T cells, flow cytometry. It counts as cell-based. Conditions: T-cell, 10 uM compound, T cells stimulated for 5 hours by IFNα, read-out: % pSTAT1 in cells treated with subject compounds relative to negative control (DMSO). Here is the method: IFNα signaling in mouse C57BL/6 T cells promotes activation of multiple signaling pathways associated with antitumor responses. A key target of this signaling is phosphorylation of the transcription factor STAT1. […] T cells are stimulated for 5 hours by IFNα in the presence or absence of exemplified compounds disclosed herein (e.g., PTPN2 inhibitors) and stained intracellularly with antibodies for phosphorylated STAT1 and then analyzed by flow cytometry. Enhancement of phosphorylation of STAT1 is read out as a percentage over the DMSO control.
In general terms: Flow cytometry measures light scatter and fluorescence of single cells or particles in a stream.

Data set [4] relates to C57B3L/6 mouse primary T cells. The experiment in a line: T-cell activation: CD25 expression on primary T cells stimulated with anti-CD3/CD28. As to conditions: 10 uM compound, primary T cells stimulated with antibodies to CD3 and CD28. It counts as cell-based. Here is the method: The increase of T cell activation and most importantly T cell function is a strategy for novel immune oncology approaches to promote tumor immunity. In vitro assays using wildtype C57B3L/6 mouse primary T cells are commonly used to assess the impact of compound on T cell activation and function. To assess the ability of compounds disclosed here (e.g., PTPN2 inhibitors) to stimulate T cell activation, primary T cells stimulated with antibodies to CD3 and CD28 are treated with or without exemplary compounds (at 10 uM) disclosed herein are stained with antibodies directed to T-cell activation markers, such as CD25. Additional markers including without limitation CD69, SLAMF6, TIM3, and PD1 can also be employed as a proxy for T cell activation.

Data set [5] concerns B16F10 mouse melanoma cells. The data set can be described thus: MHC expression associated with IFNγ signaling, flow cytometry. It is filed as cell-based. As to conditions: B16-F10, 3 uM compound, 48 hours, normalized to DMSO/with IFNγ control, read-out: % MHC in cells treated with Compound at 3 uM relative to negative control (DMSO). How it is done: B16F10 mouse melanoma cells (ATCC Cat #CRL-6475, Manassas, VA) are seeded at approximately a density of 500 cells per well in a 384-well clear bottom plate (Corning Cat #3765, Corning, 5 NY) in 25 μL total volume of DMEM+10% FBS (Sigma Cat #D6429 and Sigma Cat #F4135, St. Louis, MO). Cells are allowed to adhere overnight at 37° C.+5% CO2. On the following day, 12.5 μL of mouse IFNγ (RD systems Cat #485-MI/CF, Minneapolis, MN) is added to half of the plate (columns 13-24) at a concentration of 2 ng/mL for a final assay concentration of 0.5 ng/mL of IFNγ. Media only (12.5 μL of DMEM+10% FBS) is added to the remainder of the 10 plate (columns 1-12). Next, compounds resuspended in DMSO (Sigma Cat #D2650) at 100 mM are diluted in semi-log dilutions in DMSO ranging from 100 mM to 0.001 mM and DMSO only controls are included. The compound/DMSO dilutions are further diluted 1:250 in DMEM+10% FBS, and 12.5 μL of these dilutions are added in triplicates to cells of both treatment arms (with and without IFNγ). Compounds are only dosed in the inner 240 wells, avoiding the outer 2-well perimeter of the plate to minimize edge effects. Finally, the plate is loaded into an IncuCyte® S3 Live Cell Analysis System (Essen Bioscience-Sartorius, Ann Arbor, MI) maintained in a 37° C.+5% CO2 incubator, allowed to equilibrate for 2 hours, and treated for 48 hours. MHC levels are measured by flow cytometry using a FITC anti-mouse H-2kb antibody (clone AF6-88.5), and levels are normalized based on DMSO/with IFNγ control. Table 7 below summarizes the percentage in MHC expression in cells treated with or without compounds disclosed herein at a specified concentration.

Data set [6] in a line: mouse PK PO (oral pharmacokinetics, Compound A vs. Reference CMPD). It counts as in vivo. Conditions: identical oral dosing. How it is done: (§2) Furthermore, an AUCfinal for Compound A was measured to be 356% that of the Reference CMPD measured in the same manner and at the same time in the same mouse model. […] Furthermore, an AUCfinal for Compound A was measured to be 224% that of the Reference CMPD measured in the same manner and at the same time in the same rat model.

Data set [7] is described as follows: Rat PK PO (oral pharmacokinetics, Compound A vs. Reference CMPD). It is filed as in vivo. Conditions: identical oral dosing. Here is the method:
as §2

Data set [8] has as its system B16F10 cells. The data set can be described thus: In vivo efficacy in B16F10 mouse tumor model. Conditions: B16F10 in female C57BL/6 mice, oral BID, 100 or 300 mg/kg/dose. How it is done: Cells are grown to passage 3 in vitro. A total of 1 to 5×10^5 viable B16F10 cells are inoculated subcutaneously into the right flank of female C57BL/6 mice (7-12 weeks old) on Day 0. The injection volume is 0.1 mL and is composed of a 1: 1 mixture of S-MEM and Matrigel® (Corning, NY, USA). The mean tumor volume (TV) at randomization is approximately 100-200 mm^3. Following randomization, treatments are initiated on the same day. Dosing of mice is conducted orally, twice a day (BID). Mice are dosed (100 mg/kg/dose or 300 mg/kg/dose) with a compound described herein or vehicle controls. Tumor volume is calculated three times weekly. Measurements of the length (L) and width (W) of the tumor are taken via electronic caliper and the volume is calculated according to the following equation: V=L×W^2/2. Tumor growth inhibition (TGI) is calculated as TGI=1−(Mean TV Timepoint(Treatment)/MeanTV Timepoint (Vehicle)) for each timepoint that tumor volumes are measured and depicted in FIG. 3.

Data set [9] deals with B16F10 cells. The experiment in a line: Tumor infiltrating lymphocyte exhaustion assay. Conditions: Day 7 post dosing, B16F10 tumors in C57BL/6 mice. It is filed as in vivo, mouse. An excerpt:
The same mouse model is utilized to assess the amount of tumor infiltrating lymphocytes when treated with or without an exemplary compound A of the present disclosure. C57BL/6 mice were implanted with 5*10^5 B16F10 cells formulated in Matrigel via the subcutaneous route. After tumors reached a size of 50-150 mm^3, mice were randomized. 7 days post randomization, tumor cells were processed on a GentleMACS octo dissociator and stained for exhaustion markers using a panel of antibodies: Live/Dead, CD45.1, CD8, TIM-3, PD-1, SLAMF6, CD11b, CD38. In parallel, splenocytes were stained with the same cocktail of antibodies and analyzed by flow cytometry. […] PTPN2 inhibitors are tested in the described TIL exhaustion assay to measure modulation of exhaustion in the tumor microenvironment.

Setting [10] is: mouse PK PO, relative to Reference CMPD of WO2019/246513.
Where [11] appears, read: Rat PK PO, relative to Reference CMPD of WO2019/246513.

For the compound `CC(C)Nc1cc2c(F)c(N3CC(=O)NS3(=O)=O)c(O)cc2n(C2CC2)c1=O` [Compound 133], the 50% inhibitory concentration (IC50) in data set [1] and in [2] was at most 1 µM throughout. Besides, the activity at 10 µM in data set [3] came to 170%.
For `CC(C)CCOc1cc2c(F)c(N3CC(=O)NS3(=O)=O)c(O)cc2n(C)c1=O` [Compound 136, 5-(5-fluoro-7-hydroxy-3-(isopentyloxy)-1-methyl-2-oxo-1,2-dihydroquinolin-6-yl)-1,2,5-thiadiazolidin-3-one 1,1-dioxide], the IC50 in [1] and in data set [2] was at most 1 µM in each case. The activity at 10 µM in data set [3] amounted to 131%.
As to `CC(C)Nc1cc2c(F)c(N3CC(=O)NS3(=O)=O)c(O)cc2n(C)c1=O` [Compound 165], the IC50 in data set [1] and in [2] was at most 1 µM each time. Further, the activity at 10 µM in [3] is 139%.
Consider `O=C1CN(c2c(O)cc3c(cc(NC4CCCC4)c(=O)n3C3CC3)c2F)S(=O)(=O)N1` [Compound 185], for which the IC50 in data set [1] and in data set [2] was at most 1 µM each time. Also, in data set [3], the activity at 10 µM amounted to 181%.
On to `CC(C)Oc1ccc2cc(O)c(N3CC(=O)NS3(=O)=O)c(F)c2n1` [Compound 192], for which the IC50 in data set [1] and in data set [2] was at most 1 µM each time. Also, the activity at 10 µM in data set [3] is 183%. The “% CD25 expression in cells treated with subject compounds relative to negative control (DMSO)” value in data set [4] was 375%.
`O=C1CN(c2c(O)cc3ccc(OC(F)F)nc3c2F)S(=O)(=O)N1` [Compound 197]: the IC50 in [1] and in data set [2] was at most 1 µM in each case. Moreover, the activation at 3 µM in data set [5] was above 10%. Also, the activity at 10 µM in [3] amounted to 196%. The “% CD25 expression in cells treated with subject compounds relative to negative control (DMSO)” value in data set [4] is recorded as 436%.
In the case of `O=C1CN(c2c(O)cc3ccc(OC4CCC4)nc3c2F)S(=O)(=O)N1` [Compound 205], the half-inhibitory concentration (IC50) in data set [1] and in data set [2] was at most 1 µM in each case. The “% CD25 expression in cells treated with subject compounds relative to negative control (DMSO)” value in data set [4] is recorded as 423%.
Turning to `COc1ccc2cc(O)c(N3CC(=O)NS3(=O)=O)c(F)c2n1` [Compound A], in data set [6] (setting [10]), the “% F, Compound A vs. Reference CMPD ((Compound A/Reference CMPD) × 100%)” value was found to be 195%; the “AUClast, Compound A vs. Reference CMPD ((Compound A/Reference CMPD) × 100%)” value is listed as 356%; the “Cmax, Compound A vs. Reference CMPD ((Compound A/Reference CMPD) × 100%)” value is given as 495%. The “AUCfinal of Compound A as % of that of the Reference CMPD” value in [6] (mouse pharmacokinetic model, relative to Reference CMPD) is reported as 356%. In [7] (setting [11]), the “% F, Compound A vs. Reference CMPD ((Compound A/Reference CMPD) × 100%)” value is reported as 208%; the “AUClast, Compound A vs. Reference CMPD ((Compound A/Reference CMPD) × 100%)” value is reported as 224%; the “Cmax, Compound A vs. Reference CMPD ((Compound A/Reference CMPD) × 100%)” value amounted to 155%. Also, the “AUCfinal of Compound A as % of that of the Reference CMPD” value in data set [7] (rat pharmacokinetic model, relative to Reference CMPD) was 224%. Besides, in data set [8], the “Tumor volume / tumor growth inhibition (FIG. 3)” value is “apparent tumor stasis and shrinkage”. In data set [9], the “CD38+/CD11b+ “M1” Macrophages” value was “increase” and the “TIM3+/PD1+ T cells” value was “increase”.
